# Measurements taken from PMC8035703, “Effect of Synchronous Versus Sequential Regimens on the Pharmacokinetics and Biodistribution of Regorafenib with Irradiation” (Pharmaceutics, 2021).
# Where “and” joins values, the source holds several entries; their conditions need not be identical. Equal values may be shown once. Read-outs that look alike come from different tables or passages of the source. Marks after values point to notes of the source that are not given here.
# Tests used:
# [1] = Pharmacokinetics of regorafenib in plasma of freely moving rats with or without RT (HPLC-UV); format: in vivo, Sprague-Dawley rats; settings: for MRT / Tmax / half-life: plasma, po, 16 mg/kg; for half-life: read-out: t½
# Method: The Institutional Animal Experimentation Committee of National Yang-Ming University, Taipei, Taiwan, and the Institutional Animal Care and Use Committee (IACUC, approval number 1070523) reviewed and approved the protocol. The Laboratory Animal Center at National Yang-Ming University (Taipei, Taiwan) provided adult male Sprague-Dawley rats (300 ± 20 g body weight). A pathogen-free environment with a 12 h light–dark cycle, with access to water ad libitum and food (laboratory rodent diet 5P14, PMI Feeds, Richmond, IN, USA), was provided for the animals.
# A freely moving rat model was designed for the current study. The rats were anaesthetized and immobilized on a board, while undergoing computed tomography for localization of the whole liver or a central area 1.5 cm × 1.5 cm in size for the SBRT technique. For the whole liver field, the cranial margin was set 5 mm from the top of the diaphragm, and the caudal margin was set 5 mm lower than the liver margin. The whole liver was targeted for irradiation. The experimental animals were randomized to groups receiving sham RT, one or three fractions of RT2 Gy and RT9 Gy with current or sequential regorafenib. Data were collected from six rats in each group.
# According to the formula used to translate doses from animal to human, human equivalent dose (HED, mg/kg) = animal dose (mg/kg) × animal km/human km, we calculated the daily dose of regorafenib for rats to be 16 (mg/kg/day). The rats were randomly divided into ten groups with six rats in each group. The concurrent groups treated with regorafenib 1 h after RT, in the same day, to mimic regorafenib concurrent with RT in the daily practice. The sequential groups treated with regorafenib following RT (not in the same day), to mimic RT followed by regorafenib in the daily practice. The one fraction study group included (A) a sham group, regorafenib with RT0 Gy (regorafenib × 1 d); concurrent groups treated with regorafenib 1 h after (B) RT2 Gy with 1 fraction (RT2 Gy × 1 f’x) and (D) RT9 Gy with 1 fraction (RT9 Gy × 1 f’x); and sequential groups treated with regorafenib 24 h after (C) RT2 Gy × 1 f’x and (E) RT9 Gy × 1 f’x. Continued treatment mimicking clinical practice was applied to (A) a sham group, regorafenib (p.o. (per os), q.d. × 3 d) with RT0 Gy (regorafenib × 3 d); concurrent groups treated with regorafenib (p.o., q.d. × 3 d) 1 h after (B) RT2 Gy with 3 fractions (RT2 Gy × 3 f’x) and (D) RT9 Gy with 3 fractions (RT9Gy × 3 f’x); and sequential groups treated with regorafenib 24 h (p.o., q.d. × 3 d) after (C) RT2 Gy × 3 f’x and (E) RT9 Gy × 3 f’x. (Figure 1A,B).
# A 150 µL blood sample was withdrawn from the jugular vein with a fraction collector at 0.25, 0.5, 0.75, 1, 1.5, 2, 2.5, 3, 3.5 and 4 h, following drug administration. The samples were centrifuged for 10 min, at 4200× g. Then, 50 µL of the resulting plasma was vortexed with 1 mL of ethyl acetate and centrifuged at 5900× g. The upper layer was transferred to a new tube and evaporated to dryness.
# The HPLC system included chromatographic pumps (LC-20AT; Shimadzu Co., Kyoto, Japan), an autosampler (SIL-20AC; Shimadzu Co., Kyoto, Japan) and a UV–Vis detector (SPDM20A; Shimadzu Co., Kyoto, Japan). A Waters Acquity C^18 column (50 × 2.1 mm, particle size 1.7 μm, Eclipse XDB, Agilent, Palo Alto, CA, USA) was used for sample analysis. The mobile phase consisted of potassium dihydrogen phosphate (10 mM, pH = 3) and acetonitrile (55:45, v/v). The flow rate was set to 0.2 mL/min, and the injection volume was 5 μL. The temperature in the autosampler was set to 40 °C. The UV–Vis detector scanned from 190 to 300 nm, and the chromatographic profiles were monitored at 265 nm for regorafenib and diethylstilbestrol (internal standard (IS)).
# The process for sample extraction was as follows: 50 μL of rat plasma was mixed with internal standard (10 μL, IS, diethylstilbestrol) solution and methanol (140 μL) for protein precipitation. […]
# HCC patients = tested on: HCC patients; set-up: method as in PMID 29704513; settings: patients treated with sorafenib followed by regorafenib; cited from earlier work
# [2] = male, Sprague-Dawley, rat, rat plasma, 16 mg/kg p.o. × 1 d, no RT
# [3] = male, Sprague-Dawley, rat, rat plasma, 16 mg/kg p.o. × 3 d, no RT
# [4] = male, Sprague-Dawley, rat, rat plasma, RT2 Gy × 1 f'x followed by regorafenib 16 mg/kg p.o. × 1 d (sequential)
# [5] = male, Sprague-Dawley, rat, rat plasma, RT2 Gy × 1 f'x with regorafenib 16 mg/kg p.o. × 1 d (concurrent)
# [6] = male, Sprague-Dawley, rat, rat plasma, RT2 Gy × 3 f'x followed by regorafenib 16 mg/kg p.o. × 3 d (sequential)
# [7] = male, Sprague-Dawley, rat, rat plasma, RT2 Gy × 3 f'x with regorafenib 16 mg/kg p.o. × 3 d (concurrent)
# [8] = male, Sprague-Dawley, rat, rat plasma, RT9 Gy × 1 f'x followed by regorafenib 16 mg/kg p.o. × 1 d (sequential)
# [9] = male, Sprague-Dawley, rat, rat plasma, RT9 Gy × 1 f'x with regorafenib 16 mg/kg p.o. × 1 d (concurrent)
# [10] = male, Sprague-Dawley, rat, rat plasma, RT9 Gy × 3 f'x followed by regorafenib 16 mg/kg p.o. × 3 d (sequential)
# [11] = male, Sprague-Dawley, rat, rat plasma, RT9 Gy × 3 f'x with regorafenib 16 mg/kg p.o. × 3 d (concurrent)
# [12] = rat plasma, 16 mg/kg p.o. × 1 d, no RT
# [13] = rat plasma, 16 mg/kg p.o. × 3 d, no RT
# [14] = rat plasma, RT2 Gy × 1 f'x followed by regorafenib 16 mg/kg p.o. × 1 d (sequential)
# [15] = rat plasma, RT2 Gy × 1 f'x with regorafenib 16 mg/kg p.o. × 1 d (concurrent)
# [16] = rat plasma, RT2 Gy × 3 f'x followed by regorafenib 16 mg/kg p.o. × 3 d (sequential)
# [17] = rat plasma, RT2 Gy × 3 f'x with regorafenib 16 mg/kg p.o. × 3 d (concurrent)
# [18] = rat plasma, RT9 Gy × 1 f'x followed by regorafenib 16 mg/kg p.o. × 1 d (sequential)
# [19] = rat plasma, RT9 Gy × 1 f'x with regorafenib 16 mg/kg p.o. × 1 d (concurrent)
# [20] = rat plasma, RT9 Gy × 3 f'x followed by regorafenib 16 mg/kg p.o. × 3 d (sequential)
# [21] = rat plasma, RT9 Gy × 3 f'x with regorafenib 16 mg/kg p.o. × 3 d (concurrent)
smiles,measurement,setting,value
"CNC(=O)c1cc(Oc2ccc(NC(=O)Nc3ccc(Cl)c(C(F)(F)F)c3)c(F)c2)ccn1 [regorafenib, Regorafenib]",Decrease of plasma AUCregorafenib,"[1]; concurrent RT2 Gy × 1 f'x vs sham RT (regorafenib × 1 d), rat",33.0%
same,Decrease of plasma AUCregorafenib,"[1]; concurrent RT2 Gy × 3 f'x vs regorafenib × 3 d, rat",74%
same,Decrease of plasma AUCregorafenib,"[1]; concurrent RT9 Gy × 3 f'x vs regorafenib × 3 d, rat",69% and 69.4%
same,concentration at 180 min,"[1]; male, Sprague-Dawley, oral, rat plasma collected 180 min after regorafenib 16 mg/kg p.o. alone",1500 ng/mL
same,MRT,[1]; [2],24.7 h
same,Tmax,[1]; [2],3.17 h
same,half-life,[1]; [2],942 ± 535 min
same,MRT,[1]; [3],13.7 h
same,Tmax,[1]; [3],1.5 h
same,half-life,[1]; [3],550 ± 146 min
same,MRT,[1]; [4],9.22 h
same,Tmax,[1]; [4],3 h
same,half-life,[1]; [4],346 ± 93 min
same,MRT,[1]; [5],10.8 h
same,Tmax,[1]; [5],2.75 h
same,half-life,[1]; [5],409 ± 150 min
same,MRT,[1]; [6],22.8 h
same,Tmax,[1]; [6],1.67 h
same,half-life,[1]; [6],920 ± 956 min
same,MRT,[1]; [7],9.73 h
same,Tmax,[1]; [7],2.08 h
same,half-life,[1]; [7],372 ± 152 min
same,MRT,[1]; [8],15.6 h
same,Tmax,[1]; [8],2.58 h
same,half-life,[1]; [8],608 ± 210 min
same,MRT,[1]; [9],16.3 h
same,Tmax,[1]; [9],2.58 h
same,half-life,[1]; [9],654 ± 445 min
same,MRT,[1]; [10],14.3 h
same,Tmax,[1]; [10],1.83 h
same,half-life,[1]; [10],571 ± 323 min
same,MRT,[1]; [11],16.4 h
same,Tmax,[1]; [11],1.63 h
same,half-life,[1]; [11],662 ± 598 min
same,"Decrease of regorafenib levels (AUC) by a single fraction of RT, concurrent regimen","[1]; off-target or SBRT dose, × 1 f'x, concurrent, rat",~35%
same,"AUCregorafenib, sequential RT2 Gy × 3 f'x relative to concurrent RT2 Gy × 3 f'x",[1]; rat plasma,2.0 fold
same,Cl,[1]; [12],8.18 ± 3.06 mL/min/kg
same,Vss,[1]; [12],12641.9 ± 6928.9 mL/kg
same,Cl,[1]; [13],4.21 ± 1.82 mL/min/kg
same,Vss,[1]; [13],3604.5 ± 951.1 mL/kg
same,Cl,[1]; [14],6.19 ± 0.35 mL/min/kg
same,Vss,[1]; [14],3081.4 ± 773.1 mL/kg
same,Cl,[1]; [15],16.6 ± 7.21 mL/min/kg
same,Vss,[1]; [15],21606.9 ± 20731.8 mL/kg
same,Cl,[1]; [16],8.56 ± 7.21 mL/min/kg
same,Vss,[1]; [16],4156.0 ± 1959.9 mL/kg
same,Cl,[1]; [17],23.20 ± 9.45 ^n mL/min/kg
same,Vss,[1]; [17],12759.6 ± 8467.4 ^p mL/kg
same,Cl,[1]; [18],3.3 ± 4.3 mL/min/kg
same,Vss,[1]; [18],2898.8 ± 4123.7 mL/kg
same,Cl,[1]; [19],34.6 ± 25.3 mL/min/kg
same,Vss,[1]; [19],30999.0 ± 34618.0 mL/kg
same,Cl,[1]; [20],11.4 ± 4.5 mL/min/kg
same,Vss,[1]; [20],7960.3 ± 3023.5 ^r mL/kg
same,Cl,[1]; [21],19.0 ± 11.7 ^o mL/min/kg
same,Vss,[1]; [21],11564.4 ± 3361.0 ^q mL/kg
same,Increase of plasma AUCregorafenib,"[1]; sequential RT2 Gy × 1 f'x vs regorafenib × 1 d, rat",182.8%
same,Decrease of plasma AUCregorafenib,"[1]; sequential RT2 Gy × 3 f'x vs regorafenib × 3 d, rat",20.7%
same,Increase of plasma AUCregorafenib,"[1]; sequential RT9 Gy × 1 f'x vs regorafenib × 1 d, rat",213.2%
same,Decrease of plasma AUCregorafenib,"[1]; sequential RT9 Gy × 3 f'x vs regorafenib × 3 d, rat",45.8%
same,Median overall survival,HCC patients,26 months
